Patent US20260215430A1, “HERBICIDAL COMPOSITIONS” (SYNGENTA CROP PROTECTION AG, priority 2022, published 2026)

How the values were obtained:
All weeds = assay: Postemergence field study on natural weed populations, all weeds; assay type: in vivo; conditions: 28-31 DAA
Grasses = assay: Postemergence field study on natural weed populations, grasses; assay type: in vivo; conditions: 28-31 DAA
[1] = test system: SSBL (AMAPA, CHEAL, AMBEL); assay: Postemergence field study on natural weed populations, small seeded broadleaf; assay type: in vivo; conditions: 28-31 DAA
Method: In a postemergence field study on a natural weed populations. Herbicides were applied to 4-5″ weeds and efficacy was evaluated at 14 and 28-35 days after application. Rates were in g ai/ha. Data shown was small seeded broadleaf (SSBL; AMPA=Amaranthus palmeri; CHEAL=Chenopodium Album L.; AMBEL=Ambrosia Artemisiifolia L.) control 28-31 DAA. 100% was completely dead and 0% was no plant response.

AMAPA [2] = assay: Post-emergence study L-GLU+MST, AMAPA control; assay type: in vivo, Amaranthus palmeri; conditions: 7 days after treatment
Source text: (§1) In a post-emergence study of AMPA, CHEAL, and ABUTH (Velvet Leaf (Abutilon theophrast)) applications were done to 2 to 4-inch weeds with a spray volume of 15 gallons/acre. Treatments applied are described below, and further included an adjuvant.
The results of AMAPA control with L-GLU+MST mixtures at 7 days after treatment are summarized in the below matrix, where bolded values represent synergy as calculated by Colby.

ABUTH = assay: Post-emergence study L-GLU+MST, ABUTH control; assay type: in vivo, Velvet Leaf (Abutilon theophrast); conditions: 7 days after treatment
Source text: as §1
The results of ABUTH control with L-GLU+MST mixtures at 7 days after treatment are summarized in the below matrix, where bolded values represent synergy as calculated by Colby.

CHEAL [3] = assay: Post-emergence study L-GLU+MST, CHEAL control; assay type: in vivo, Chenopodium Album L.; conditions: 7 days after treatment
Source text: as §1
The results of CHEAL control with L-GLU+MST mixtures at 7 days after treatment are summarized in the below matrix, where bolded values represent synergy as calculated by Colby.

AMAPA [4] = assay: Post-emergence study L-GLU+BIR, AMAPA control; assay type: in vivo, Amaranthus palmeri; conditions: 9 days after treatment
Source text: (§2) In a post-emergence study of AMPA, CHEAL, and Setaria faberi (SETFA) applications were done to 2 to 4-inch weeds with a spray volume of 15 gallons/acre. Treatments applied are described below, and further included an adjuvant.
The results of AMAPA control with L-GLU+BIR (bicyclopyrone) mixtures at 9 days after treatment are summarized in the below matrix, where bolded values represent synergy as calculated by Colby.

CHEAL [5] = assay: Post-emergence study L-GLU+BIR, CHEAL control; assay type: in vivo, Chenopodium Album L.; conditions: 9 days after treatment
Source text: as §2
The results of CHEAL control with L-GLU+BIR (bicyclopyrone) mixtures at 9 days after treatment are summarized in the below matrix, where bolded values represent synergy as calculated by Colby.

SETFA = assay: Post-emergence study L-GLU+BIR, SETFA control; assay type: in vivo, Setaria faberi
Source text: as §2
The results of SETFA control with L-GLU+BIR (bicyclopyrone) mixtures at 7 and 14 days after treatment, respectively, are summarized in the below matrix, where bolded values represent synergy as calculated by Colby.

Q: How did the “control, All weeds” value (All weeds; L-glufosinate 328 g/ha) turn out when CP(=O)(O)CC[C@H](N)C(=O)O [L-glufosinate] was run?
A: 70%

Q: What about the “control, Grasses” value (Grasses; L-glufosinate 328 g/ha) of the same compound?
A: 83%

Q: What about the “control, SSBL (AMAPA, CHEAL, AMBEL)” value ([1]; L-glufosinate 328 g/ha) of the same compound?
A: 55%

Q: And the “% Control AMAPA” value (AMAPA [2]; L-GLU 5 g ai/ha alone)?
A: 27%

Q: What about the “% Control AMAPA” value (AMAPA [2]; L-GLU 10 g ai/ha alone) of the same compound?
A: 33%

Q: And the “% Control AMAPA” value (AMAPA [2]; L-GLU 30 g ai/ha alone)?
A: 83%

Q: What about the “% Control AMAPA” value (AMAPA [2]; L-GLU 60 g ai/ha alone) of the same compound?
A: 97%

Q: What about the “% Control AMAPA” value (AMAPA [2]; L-GLU 120 g ai/ha alone) of the same compound?
A: 100%

Q: And the “% Control ABUTH” value (ABUTH; L-GLU 5 g ai/ha alone)?
A: 2%

Q: And the “% Control ABUTH” value (ABUTH; L-GLU 10 g ai/ha alone)?
A: 8%

Q: And the “% Control ABUTH” value (ABUTH; L-GLU 30 g ai/ha alone)?
A: 38%

Q: What about the “% Control ABUTH” value (ABUTH; L-GLU 60 g ai/ha alone) of the same compound?
A: 67%

Q: What about the “% Control ABUTH” value (ABUTH; L-GLU 120 g ai/ha alone) of the same compound?
A: 87%

Q: What about the “% Control CHEAL” value (CHEAL [3]; L-GLU 5 g ai/ha alone) of the same compound?
A: 3%

Q: What about the “% Control CHEAL” value (CHEAL [3]; L-GLU 10 g ai/ha alone) of the same compound?
A: 8%

Q: What about the “% Control CHEAL” value (CHEAL [3]; L-GLU 30 g ai/ha alone) of the same compound?
A: 72%

Q: What about the “% Control CHEAL” value (CHEAL [3]; L-GLU 60 g ai/ha alone) of the same compound?
A: 90%

Q: What about the “% Control CHEAL” value (CHEAL [3]; L-GLU 120 g ai/ha alone) of the same compound?
A: 90%

Q: What about the “% Control AMAPA” value (AMAPA [4]; L-GLU 5 g ai/ha alone) of the same compound?
A: 17%

Q: And the “% Control AMAPA” value (AMAPA [4]; L-GLU 10 g ai/ha alone)?
A: 23%

Q: What about the “% Control AMAPA” value (AMAPA [4]; L-GLU 30 g ai/ha alone) of the same compound?
A: 57%

Q: And the “% Control AMAPA” value (AMAPA [4]; L-GLU 60 g ai/ha alone)?
A: 87%

Q: And the “% Control AMAPA” value (AMAPA [4]; L-GLU 120 g ai/ha alone)?
A: 93%

Q: What about the “% Control CHEAL” value (CHEAL [5]; L-GLU 5 g ai/ha alone) of the same compound?
A: 0%

Q: And the “% Control CHEAL” value (CHEAL [5]; L-GLU 10 g ai/ha alone)?
A: 13%

Q: What about the “% Control CHEAL” value (CHEAL [5]; L-GLU 30 g ai/ha alone) of the same compound?
A: 38%

Q: And the “% Control CHEAL” value (CHEAL [5]; L-GLU 60 g ai/ha alone)?
A: 88%

Q: And the “% Control CHEAL” value (CHEAL [5]; L-GLU 120 g ai/ha alone)?
A: 100%

Q: What about the “% Control SETFA” value (SETFA; L-GLU 5 g ai/ha alone, 14 Days after Treatment) of the same compound?
A: 10%

Q: And the “% Control SETFA” value (SETFA; L-GLU 5 g ai/ha alone, 7 days after treatment)?
A: 13%

Q: And the “% Control SETFA” value (SETFA; L-GLU 10 g ai/ha alone, 14 Days after Treatment)?
A: 35%

Q: What about the “% Control SETFA” value (SETFA; L-GLU 10 g ai/ha alone, 7 days after treatment) of the same compound?
A: 48%

Q: And the “% Control SETFA” value (SETFA; L-GLU 30 g ai/ha alone, 14 Days after Treatment)?
A: 65%

Q: And the “% Control SETFA” value (SETFA; L-GLU 30 g ai/ha alone, 7 days after treatment)?
A: 85%

Q: What about the “% Control SETFA” value (SETFA; L-GLU 60 g ai/ha alone, 14 Days after Treatment) of the same compound?
A: 89%

Q: What about the “% Control SETFA” value (SETFA; L-GLU 60 g ai/ha alone, 7 days after treatment) of the same compound?
A: 95%

Q: And the “% Control SETFA” value (SETFA; L-GLU 120 g ai/ha alone, 14 Days after Treatment)?
A: 100%

Q: What about the “% Control SETFA” value (SETFA; L-GLU 120 g ai/ha alone, 7 days after treatment) of the same compound?
A: 100%

Q: How did the “control, All weeds” value (All weeds; Mesotrione 105 g/ha) turn out when CS(=O)(=O)c1ccc(C(=O)C2C(=O)CCCC2=O)c([N+](=O)[O-])c1 [Mesotrione] was run?
A: 44%

Q: What about the “control, Grasses” value (Grasses; Mesotrione 105 g/ha) of the same compound?
A: 35%

Q: And the “control, SSBL (AMAPA, CHEAL, AMBEL)” value ([1]; Mesotrione 105 g/ha)?
A: 26%

Q: What about the “% Control AMAPA” value (AMAPA [2]; MST 1.5 g ai/ha alone) of the same compound?
A: 20%

Q: And the “% Control AMAPA” value (AMAPA [2]; MST 3 g ai/ha alone)?
A: 30%

Q: What about the “% Control AMAPA” value (AMAPA [2]; MST 6 g ai/ha alone) of the same compound?
A: 37%

Q: And the “% Control AMAPA” value (AMAPA [2]; MST 12 g ai/ha alone)?
A: 72%

Q: What about the “% Control AMAPA” value (AMAPA [2]; MST 24 g ai/ha alone) of the same compound?
A: 85%

Q: And the “% Control AMAPA” value (AMAPA [2]; MST 60 g ai/ha alone)?
A: 85%

Q: And the “% Control ABUTH” value (ABUTH; MST 1.5 g ai/ha alone)?
A: 85%

Q: And the “% Control ABUTH” value (ABUTH; MST 3 g ai/ha alone)?
A: 83%

Q: What about the “% Control ABUTH” value (ABUTH; MST 6 g ai/ha alone) of the same compound?
A: 95%

Q: What about the “% Control ABUTH” value (ABUTH; MST 12 g ai/ha alone) of the same compound?
A: 92%

Q: What about the “% Control ABUTH” value (ABUTH; MST 24 g ai/ha alone) of the same compound?
A: 96%

Q: And the “% Control ABUTH” value (ABUTH; MST 60 g ai/ha alone)?
A: 92%

Q: What about the “% Control CHEAL” value (CHEAL [3]; MST 1.5 g ai/ha alone) of the same compound?
A: 78%

Q: And the “% Control CHEAL” value (CHEAL [3]; MST 3 g ai/ha alone)?
A: 85%

Q: And the “% Control CHEAL” value (CHEAL [3]; MST 6 g ai/ha alone)?
A: 92%

Q: And the “% Control CHEAL” value (CHEAL [3]; MST 12 g ai/ha alone)?
A: 93%

Q: And the “% Control CHEAL” value (CHEAL [3]; MST 24 g ai/ha alone)?
A: 93%

Q: And the “% Control CHEAL” value (CHEAL [3]; MST 60 g ai/ha alone)?
A: 90%

Q: bicyclopyrone was tested. Which “% Control AMAPA” value (AMAPA [4]; BIR 1.56 g ai/ha alone) did it give?
A: 27%

Q: What about the “% Control AMAPA” value (AMAPA [4]; BIR 3.13 g ai/ha alone) of the same compound?
A: 37%

Q: And the “% Control AMAPA” value (AMAPA [4]; BIR 6.25 g ai/ha alone)?
A: 48%

Q: And the “% Control AMAPA” value (AMAPA [4]; BIR 12.5 g ai/ha alone)?
A: 53%

Q: What about the “% Control AMAPA” value (AMAPA [4]; BIR 25 g ai/ha alone) of the same compound?
A: 80%

Q: What about the “% Control AMAPA” value (AMAPA [4]; BIR 50 g ai/ha alone) of the same compound?
A: 90%

Q: And the “% Control CHEAL” value (CHEAL [5]; BIR 1.56 g ai/ha alone)?
A: 58%

Q: What about the “% Control CHEAL” value (CHEAL [5]; BIR 3.13 g ai/ha alone) of the same compound?
A: 75%

Q: What about the “% Control CHEAL” value (CHEAL [5]; BIR 6.25 g ai/ha alone) of the same compound?
A: 88%

Q: What about the “% Control CHEAL” value (CHEAL [5]; BIR 12.5 g ai/ha alone) of the same compound?
A: 92%

Q: And the “% Control CHEAL” value (CHEAL [5]; BIR 25 g ai/ha alone)?
A: 96%

Q: What about the “% Control CHEAL” value (CHEAL [5]; BIR 50 g ai/ha alone) of the same compound?
A: 97%

Q: And the “% Control SETFA” value (SETFA; BIR 3.13 g ai/ha alone, 7 Days after Treatment)?
A: 28%

Q: And the “% Control SETFA” value (SETFA; BIR 3.13 g ai/ha alone, 14 Days after Treatment)?
A: 23%

Q: What about the “% Control SETFA” value (SETFA; BIR 6.25 g ai/ha alone, 7 Days after Treatment) of the same compound?
A: 35%

Q: What about the “% Control SETFA” value (SETFA; BIR 6.25 g ai/ha alone, 14 Days after Treatment) of the same compound?
A: 32%

Q: And the “% Control SETFA” value (SETFA; BIR 12.5 g ai/ha alone, 7 Days after Treatment)?
A: 62%

Q: What about the “% Control SETFA” value (SETFA; BIR 12.5 g ai/ha alone, 14 Days after Treatment) of the same compound?
A: 45%

Q: What about the “% Control SETFA” value (SETFA; BIR 25 g ai/ha alone, 7 Days after Treatment) of the same compound?
A: 73%

Q: What about the “% Control SETFA” value (SETFA; BIR 25 g ai/ha alone, 14 Days after Treatment) of the same compound?
A: 58%

Q: And the “% Control SETFA” value (SETFA; BIR 50 g ai/ha alone, 7 Days after Treatment)?
A: 78%

Q: And the “% Control SETFA” value (SETFA; BIR 50 g ai/ha alone, 14 Days after Treatment)?
A: 75%

Q: And the “% Control SETFA” value (SETFA; BIR 100 g ai/ha alone, 7 Days after Treatment)?
A: 77%

Q: And the “% Control SETFA” value (SETFA; BIR 100 g ai/ha alone, 14 Days after Treatment)?
A: 90%
